Literature values in US20080146525A1 (priority 2006, published 2008).

Experiments:
[1] = administered orally
[2] = animal models and humans
[3] = test system: extra-cellular acetylcholine and dopamine levels; conditions: versus compositions commonly used to treat Alzheimer's disease; rats
[4] = healthy adolescents
neurotransmitters = conditions: humans

CC(=C(CCOC(=O)C(C)C)SSC(CCOC(=O)C(C)C)=C(C)N(C=O)Cc1cnc(C)nc1N)N(C=O)Cc1cnc(C)nc1N (stereo in doubt) [Sulbutiamine]
memory effect (rats): memory enhancing effects

C/C=C1\[C@H]2C=C(C)C[C@]1(N)c1ccc(=O)[nH]c1C2 [Huperzine-A]
bioavailability [1]: good bioavailability
effect on memory deficits [2]: improves memory deficits
ability to increase extra-cellular acetylcholine and dopamine levels [3]: greater ability to increase extra-cellular acetylcholine and dopamine levels
memory and learning [4]: improve memory and learning
amount of nerve growth factor (nerve growth factor): increase the amount of nerve growth factor

N[C@@H](Cc1ccc(O)cc1)C(=O)O [Tyrosine]
neurotransmitters after oral administration (neurotransmitters): increased of neurotransmitters
